Residues, ends and D or L forms follow the SMILES beside them. *: point of attachment. Biotin = O=C1N[C@H]2[C@H](CS[C@H]2CCCCC(=O)*)N1
System: neurons of primary cortical cultures
Assay: Neuronal viability (MTT) under NMDA excitotoxicity
Format: cell-based, rat
Method: Cultures were prepared from cerebral cortex of 18-day-old Wistar rat embryos, both genders indistinctly included. Unless otherwise indicated, glial growth was inhibited after 7 days in vitro (DIVs), experimental treatments taking place after 12 DIVs. These cultures present a high percentage of neurons, combined with glial cells, mostly astrocytes. To induce excitotoxicity, cultures were incubated with NMDA (100 µM) and its co-agonist glycine (10 µM), herein denoted simply as NMDA, which induce a strong excitotoxic response in mature neurons but have no effect on astrocyte viability,[47]. When indicated, cultures were preincubated for 30 min with indicated concentrations of Tat-derived CPPs before NMDA treatment, peptides being kept in the medium along treatment. Total cell or neuronal viability assessment was established by the thiazolyl blue formazan (MTT) reduction assay. Further details are provided as Supplementary material. […]
skull for 10 min. Br ain injury encompas se s damage to vas cular endothelium, platelet activation, and subs equent microvascula r thrombotic occlus ion of the irradiate d region. The ar eas underneath this ste reotaxic position that result irradiate d ar e the prima ry motor cortex and the prima ry soma tos ens ory cortex (hindlimb and forelimb). Once completed surgery, the incision was sutured, and mice were allowed to recover.
For neuroprote ction experiments, a single dose (3 nmol/g) of peptides TMyc or TT1Ct (> 95% purity; GenScript), solubilized as 2.5 mM solutions in 0.9% NaC l, we retro-orbita lly injected 1 h af ter damage initiation. In order to improve their plas ma sta bility, thes e peptides ar e N- and C-ter modifie d by, respec tive ly, ace tyl and amide groups. Mi c e were not subje cted to other procedures before isc hemia and were naive to drug or peptide treatment. Animals were randomly allocated to the experimental groups and the resea rc hers doing the experiments were blind respec t to treatment. There was not a previous es tima tion of sa mple si z e and experiments were independently car r ied out as indicated. Twenty-four hours af ter damage induction, animals completed the beam walking test and were subs equently sa cri f i ced by cervical disloca tion to meas ure the infarc t volume, as indicated below. Be fore that, brains were se ctioned into se ri al 1-mm-thick coronal sl i ce s using a mouse brain matrix (Stoe lting, Wood Dale, IL, USA), and se ctions were completely sta ine d with 2% TTC at room temperature to visua liz e the cortical infarc ts . For immunohistochemis try, animals were deeply anes thetized 5 or 24 h af ter brain damage and intra cardially perfus ed with cold PBS and 4% paraformalde hyde in PBS as indicated below.
Primary cultures of rat cor tic al neurons to study in vitro excitotoxicity The diss ected cerebral cortices of Wis ta r rat embryos (E18), both genders included, were mechanic ally diss ociated in culture medium (Minimum Esse ntia l Me dium, ME M, Life Technologies) follow ed by se eding of the cell sus pens ion at a dens ity of 1.1x10^6 cells /ml, prepared in the sa m e medium supple me nted with 22.2 mM glucos e, 0.1 mM glutamax, 5% foetal bovine se rum (FBS), 5% donor horse se rum (HS), 100 U/ml penicillin and 100 µg/ml streptomycin. Be fore se eding, the plates were treated overnight at 37°C with 100 µg/ml poly-L-lysine and 4 µg/ml laminin. The cells were incubated at 37°C in an atmosphe re of 5% CO2 and 95% humidity. Generally, glial growth was inhibited af ter 7 days in vitro (DIV s) by adding 10 µM 5 cytos ine β-D-arabinofuranos ide (AraC) and experimental treatments took place af ter 12 DIVs. Excitotoxicity was induced by incubation with NM DA (100 µM) and glycine (10 µM) for the indicated times. As indicated, cultures were preincubated with Tat-derived CP P s before […]
Mi c e had to walk through a narrow beam (1 m × 1 cm × 1 cm) placed 50 cm above the tabletop, going from an aversive stimulus (60-W light bulb) to a black goal box with nes ting material. […]

[1] = peptide 25 µM preincubated 30 min, NMDA 100 µM + glycine 10 µM for 2 h, relative to untreated cells (100%), mean ± SEM, n = 8 (Fig 1E)
[2] = peptide 25 µM preincubated 30 min, NMDA 100 µM + glycine 10 µM for 4 h, relative to untreated cells (100%), mean ± SEM, n = 8 (Fig 1E)

In the case of `CC[C@H](C)[C@H](NC(=O)[C@H](CC(C)C)NC(=O)[C@H](CCCCN)NC(=O)[C@H](CCC(N)=O)NC(=O)[C@H](CCC(=O)O)NC(=O)[C@H](CCC(=O)O)NC(=O)[C@H](C)NC(=O)[C@H](CCCNC(=N)N)NC(=O)[C@H](CCCNC(=N)N)NC(=O)[C@H](CCCNC(=N)N)NC(=O)[C@H](CCC(N)=O)NC(=O)[C@H](CCCNC(=N)N)NC(=O)[C@H](CCCNC(=N)N)NC(=O)[C@H](CCCCN)NC(=O)[C@H](CCCCN)NC(=O)[C@H](CCCNC(=N)N)NC(=O)CNC(=O)[C@H](Cc1ccc(O)cc1)NC(=O)CCCC[C@@H]1SC[C@@H]2NC(=O)N[C@@H]21)C(=O)N[C@@H](CO)C(=O)N[C@@H](CCC(=O)O)C(=O)N[C@@H](CCC(=O)O)C(=O)N[C@@H](CC(=O)O)C(=O)N[C@@H](CC(C)C)C(=O)N[C@@H](CC(C)C)C(=O)N[C@@H](CCCNC(=N)N)C(N)=O` [Bio-TMyc, reference compound] (Biotin-YGRKKRRQRRRAEEQKLISEEDLLR-NH2), the “Relative neuronal viability (%)” value [1] is reported as 24 ± 3% and the “Relative neuronal viability (%)” value [2] is reported as 16 ± 3%.
`CC[C@H](C)[C@H](NC(=O)[C@H](CCCCN)NC(=O)[C@H](Cc1c[nH]cn1)NC(=O)[C@H](Cc1ccccc1)NC(=O)[C@H](CC(C)C)NC(=O)[C@@H](NC(=O)[C@H](Cc1ccccc1)NC(=O)[C@H](CCCNC(=N)N)NC(=O)[C@H](CCCNC(=N)N)NC(=O)[C@H](CCCNC(=N)N)NC(=O)[C@H](CCC(N)=O)NC(=O)[C@H](CCCNC(=N)N)NC(=O)[C@H](CCCNC(=N)N)NC(=O)[C@H](CCCCN)NC(=O)[C@H](CCCCN)NC(=O)[C@H](CCCNC(=N)N)NC(=O)CNC(=O)[C@H](Cc1ccc(O)cc1)NC(=O)CCCC[C@@H]1SC[C@@H]2NC(=O)N[C@@H]21)C(C)C)C(=O)N1CCC[C@H]1C(=O)N[C@@H](CC(C)C)C(=O)N[C@@H](CC(=O)O)C(=O)NCC(N)=O` [Bio-sTT1Ct] (Biotin-YGRKKRRQRRRFVLFHKIPLDG-NH2) was tested, and the “Relative neuronal viability (%)” value (2 h, 15 µM) was 45%, the “Relative neuronal viability (%)” value (4 h, 15 µM) was 39% and the “Relative neuronal viability (%)” value [1] was 50 ± 5%. For the same compound, the “Relative neuronal viability (%)” value [2] was 32 ± 3%.
In the case of Ac-YGRKKRRQRRRPPFVLFHKIPLDG-NH2 [TT1Ct], the Neuronal viability (CPPs 0: peptide and NMDA (100 µM) at the same time, viability after 4 h of excitotoxicity, relative to untreated cells (100%), mean, n = 4-8 (Fig S4)) is reported as 59%, the Neuronal viability (CPPs 30: peptide added 30' post-NMDA (100 µM), viability after 4 h of excitotoxicity, relative to untreated cells (100%), mean, n = 4-8 (Fig S4)) is reported as 31% and the Neuronal viability (CPPs 60: peptide added 60' post-NMDA (100 µM), viability after 4 h of excitotoxicity, relative to untreated cells (100%), mean, n = 4-8 (Fig S4)) is reported as 37%. It also gave a Neuronal viability (dose-response experiment (Fig 3B): peptide 15 µM preincubated 30 min, NMDA 2 h, mean ± SEM, n = 8) of 46 ± 7%.
